According to US20230028658A1, “EXPANDED DOSAGE REGIMENS FOR INTEGRIN INHIBITORS” (Pliant Therapeutics, Inc., priority 2021, published 2023):

Target: recombinant human integrin αvβ6 (Homo sapiens, UniProt P06756+P18564)
Assay: Solid phase integrin αvβ6 binding assay
Conditions: read-out: αvβ6 Inhibition IC50 (nM) - range
Experimental: Microplates were coated with recombinant human integrin αvβ6 (2 μg/mL) in PBS (100 μL/well 25° C., overnight). The coating solution was removed, washed with wash buffer (0.05% Tween 20; 0.5 mM MnCl2; in 1×TBS). The plate was blocked with 200 μL/well of Block Buffer (1% BSA; 5% sucrose; 0.5 mM MnCl2; in 1×TBS) at 37° C. for 2 h. Dilutions of testing compounds and recombinant TGFβ1 LAP (0.67 μg/mL) in binding buffer (0.05% BSA; 2.5% sucrose; 0.5 mM MnCl2; in 1×TBS) were added. The plate was incubated for 2 hours at 25° C., washed, and incubated for 1 hour with Biotin-Anti-hLAP. Bound antibody was detected by peroxidase-conjugated streptavidin. The IC50 values for testing compounds were calculated by a four-parameter logistic regression.
The compounds tested were compound samples prepared according to procedures described in the Synthetic Examples section, with the stereochemical purity as indicated in the Examples.

recombinant human integrin αvβ6, sequence (P06756 31-992 limits assumed): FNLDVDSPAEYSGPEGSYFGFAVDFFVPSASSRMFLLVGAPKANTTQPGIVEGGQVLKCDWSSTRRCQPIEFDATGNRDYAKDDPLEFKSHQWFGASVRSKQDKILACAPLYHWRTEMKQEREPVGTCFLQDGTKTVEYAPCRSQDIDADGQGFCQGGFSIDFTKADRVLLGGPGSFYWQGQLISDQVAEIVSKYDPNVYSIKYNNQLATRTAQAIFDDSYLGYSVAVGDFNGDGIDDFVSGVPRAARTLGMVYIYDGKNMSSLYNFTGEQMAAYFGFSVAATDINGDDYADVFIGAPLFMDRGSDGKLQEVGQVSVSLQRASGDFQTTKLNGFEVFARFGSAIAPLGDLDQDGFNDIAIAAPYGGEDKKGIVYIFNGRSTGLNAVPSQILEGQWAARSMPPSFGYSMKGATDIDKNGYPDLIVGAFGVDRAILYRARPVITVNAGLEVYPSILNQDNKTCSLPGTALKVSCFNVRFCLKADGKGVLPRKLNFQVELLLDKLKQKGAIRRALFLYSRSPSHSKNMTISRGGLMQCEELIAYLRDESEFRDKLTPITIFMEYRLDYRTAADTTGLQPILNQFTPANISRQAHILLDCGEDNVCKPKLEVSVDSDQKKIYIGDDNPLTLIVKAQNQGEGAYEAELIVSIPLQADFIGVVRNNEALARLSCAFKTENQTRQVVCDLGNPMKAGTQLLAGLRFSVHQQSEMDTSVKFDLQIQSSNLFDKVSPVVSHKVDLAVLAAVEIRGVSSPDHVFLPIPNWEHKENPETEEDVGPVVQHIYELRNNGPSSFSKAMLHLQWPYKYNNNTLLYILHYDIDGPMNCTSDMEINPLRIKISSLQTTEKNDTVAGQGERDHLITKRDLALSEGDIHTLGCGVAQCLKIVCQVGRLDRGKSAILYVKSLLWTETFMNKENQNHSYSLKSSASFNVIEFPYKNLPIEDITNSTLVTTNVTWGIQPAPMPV
recombinant human integrin αvβ6, sequence (P18564 22-707 limits assumed): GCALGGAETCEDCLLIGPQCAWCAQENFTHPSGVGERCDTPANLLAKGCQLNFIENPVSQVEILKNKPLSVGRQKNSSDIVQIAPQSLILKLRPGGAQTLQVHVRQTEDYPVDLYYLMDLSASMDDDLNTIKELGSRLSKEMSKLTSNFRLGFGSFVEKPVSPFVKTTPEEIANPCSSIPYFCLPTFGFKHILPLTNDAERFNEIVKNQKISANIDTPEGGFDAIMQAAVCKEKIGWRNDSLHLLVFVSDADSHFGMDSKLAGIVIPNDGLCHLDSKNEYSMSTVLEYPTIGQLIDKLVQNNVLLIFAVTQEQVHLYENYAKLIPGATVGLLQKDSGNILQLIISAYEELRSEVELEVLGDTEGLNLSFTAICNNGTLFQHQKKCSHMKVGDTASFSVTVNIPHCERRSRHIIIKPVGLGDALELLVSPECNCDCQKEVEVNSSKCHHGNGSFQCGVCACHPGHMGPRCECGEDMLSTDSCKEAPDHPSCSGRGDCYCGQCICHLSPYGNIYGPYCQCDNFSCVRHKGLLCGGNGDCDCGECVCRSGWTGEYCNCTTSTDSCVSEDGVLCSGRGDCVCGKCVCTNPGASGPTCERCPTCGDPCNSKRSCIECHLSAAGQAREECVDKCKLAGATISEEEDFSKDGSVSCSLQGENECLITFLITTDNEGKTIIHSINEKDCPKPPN

IC50	Structure (SMILES)
250 to 1000 nM	O=C(O)[C@H](CCN(CCCCc1ccc2c(n1)NCCC2)C1CC1)Nc1ccncn1 [Compound 2, (S)-4-(cyclopropyl(4-(5,6,7,8-tetrahydro-1,8-naphthyridin-2-yl)butyl)amino)-2-(pyrimidin-4-ylamino) butanoic acid]
< 50 nM	COCCN(CCCCc1ccc2c(n1)NCCC2)CC[C@H](Nc1ncnc2cc(F)ccc12)C(=O)O [Compound 7, (S)-2-((7-fluoroquinazolin-4-yl)amino)-4-((2-methoxyethyl) (4-(5,6,7,8-tetrahydro-1,8-naphthyridin-2-yl)butyl)amino) butanoic acid]
< 50 nM	COCCN(CCCCc1ccc2c(n1)NCCC2)CC[C@H](Nc1ncnc2cccnc12)C(=O)O [Compound 16, (S)-4-((2-methoxyethyl) (4-(5,6,7,8-tetrahydro-1,8-naphthyridin-2-yl)butyl)amino)-2-(pyrido[3,2-d]pyrimidin-4-ylamino) butanoic acid]
< 50 nM	CO[C@@H](C)CN(CCCCc1ccc2c(n1)NCCC2)CC[C@H](Nc1ncnc2ccccc12)C(=O)O [Compound 25, (S)-4-(((S)-2-methoxypropyl) (4-(5,6,7,8-tetrahydro-1,8-naphthyridin-2-yl)butyl)amino)-2-(quinazolin-4-ylamino) butanoic acid]
< 50 nM	CS(=O)(=O)CCN(CCCCc1ccc2c(n1)NCCC2)CC[C@H](Nc1ncnc2ccccc12)C(=O)O [Compound 27, (S)-4-((2-(methylsulfonyl)ethyl) (4-(5,6,7,8-tetrahydro-1,8-naphthyridin-2-yl)butyl)amino)-2-(quinazolin-4-ylamino) butanoic acid]
< 50 nM	O=C(O)[C@H](CCN(CCCCc1ccc2c(n1)NCCC2)CCC(F)F)Nc1ncnc2ccccc12 [Compound 29, (S)-4-((3,3-difluoropropyl) (4-(5,6,7,8-tetrahydro-1,8-naphthyridin-2-yl)butyl)amino)-2-(quinazolin-4-ylamino) butanoic acid]
> 1000 nM	COCCN(CCCCc1ccc2c(n1)NCCC2)CC[C@H](Nc1nccc2ccccc12)C(=O)O [Compound 34, (S)-2-(isoquinolin-1-ylamino)-4-((2-methoxyethyl) (4-(5,6,7,8-tetrahydro-1,8-naphthyridin-2-yl)butyl)amino) butanoic acid]
> 1000 nM	COCCN(CCCCc1ccc2c(n1)NCCC2)CC[C@H](Nc1ccnc2ccccc12)C(=O)O [Compound 36, (S)-4-((2-methoxyethyl) (4-(5,6,7,8-tetrahydro-1,8-naphthyridin-2-yl)butyl)amino)-2-(quinolin-4-ylamino) butanoic acid]
< 50 nM	COCCN(CCCCc1ccc2c(n1)NCCC2)CC[C@H](Nc1cc(-n2cccn2)ncn1)C(=O)O [Compound 44, (S)-2-((6-(1H-pyrazol-1-yl)pyrimidin-4-yl)amino)-4-((2-methoxyethyl) (4-(5,6,7,8-tetrahydro-1,8-naphthyridin-2-yl)butyl)amino) butanoic acid]
< 50 nM	CO[C@H](C)CN(CCCCc1ccc2c(n1)NCCC2)CC[C@H](Nc1ncnc2ccccc12)C(=O)O [Compound 62, (S)-4-(((R)-2-methoxypropyl) (4-(5,6,7,8-tetrahydro-1,8-naphthyridin-2-yl)butyl)amino)-2-(quinazolin-4-ylamino) butanoic acid]
< 50 nM	CO[C@H](C)CN(CCCCc1ccc2c(n1)NCCC2)CC[C@H](Nc1ncc(C#N)cn1)C(=O)O [Compound 68, (S)-2-((5-cyanopyrimidin-2-yl)amino)-4-(((R)-2-methoxypropyl) (4-(5,6,7,8-tetrahydro-1,8-naphthyridin-2-yl)butyl)amino) butanoic acid]
< 50 nM	O=C(O)[C@H](CCN(CCO)CCCCc1ccc2c(n1)NCCC2)Nc1ncnc2ccccc12 [Compound 75, (S)-4-((2-hydroxyethyl) (4-(5,6,7,8-tetrahydro-1,8-naphthyridin-2-yl)butyl)amino)-2-(quinazolin-4-ylamino) butanoic acid]
< 50 nM	CO[C@H](C)CN(CCCCc1ccc2c(n1)NCCC2)CC[C@H](Nc1cc(-c2ccccc2)ncn1)C(=O)O [Compound 80, (S)-4-(((R)-2-methoxypropyl) (4-(5,6,7,8-tetrahydro-1,8-naphthyridin-2-yl)butyl)amino)-2-((6-phenylpyrimidin-4-yl)amino) butanoic acid]
< 50 nM	CO[C@H](C)CN(CCCCc1ccc2c(n1)NCCC2)CC[C@H](Nc1ncncc1-c1ccccc1)C(=O)O [Compound 81, (S)-4-(((R)-2-methoxypropyl) (4-(5,6,7,8-tetrahydro-1,8-naphthyridin-2-yl)butyl)amino)-2-((5-phenylpyrimidin-4-yl)amino) butanoic acid]
< 50 nM	Cn1ncc2c(N[C@@H](CCN(CCCCc3ccc4c(n3)NCCC4)CCOc3ccccc3)C(=O)O)ncnc21 [Compound 82, (S)-2-((1-methyl-1H-pyrazolo[3,4-d]pyrimidin-4-yl)amino)-4-((2-phenoxyethyl) (4-(5,6,7,8-tetrahydro-1,8-naphthyridin-2-yl)butyl)amino) butanoic acid]
250 to 1000 nM	COC[C@@H](F)CN(CCCCc1ccc2c(n1)NCCC2)CC[C@H](Nc1ncc(C#N)cn1)C(=O)O [Compound 84, (S)-2-((5-cyanopyrimidin-2-yl)amino)-4-(((S)-2-fluoro-3-methoxypropyl) (4-(5,6,7,8-tetrahydro-1,8-naphthyridin-2-yl)butyl)amino) butanoic acid]
> 1000 nM	Cn1ncc2c(N[C@@H](CCN(CCCCc3ccc4c(n3)NCCC4)CC(F)F)C(=O)O)ncnc21 [Compound 88, (S)-4-((2,2-difluoroethyl) (4-(5,6,7,8-tetrahydro-1,8-naphthyridin-2-yl)butyl)amino)-2-((1-methyl-1H-pyrazolo[3,4-d]pyrimidin-4-yl)amino) butanoic acid]
50 to 250 nM	Cn1ncc2c(N[C@@H](CCN(CCCCc3ccc4c(n3)NCCC4)CCS(C)(=O)=O)C(=O)O)ncnc21 [Compound 101, (S)-2-((1-methyl-1H-pyrazolo[3,4-d]pyrimidin-4-yl)amino)-4-((2-(methylsulfonyl)ethyl) (4-(5,6,7,8-tetrahydro-1,8-naphthyridin-2-yl)butyl)amino) butanoic acid]
< 50 nM	CO[C@H](C)CN(CCCCc1ccc2c(n1)NCCC2)CC[C@H](Nc1ccncn1)C(=O)O [Compound 106, (S)-4-(((R)-2-methoxypropyl) (4-(5,6,7,8-tetrahydro-1,8-naphthyridin-2-yl)butyl)amino)-2-(pyrimidin-4-ylamino) butanoic acid]
> 1000 nM	O=C(O)[C@H](CCN(CCCCc1ccc2c(n1)NCCC2)CC(F)F)Nc1ncncc1-c1ccccc1 [Compound 119, (S)-4-((2,2-difluoroethyl) (4-(5,6,7,8-tetrahydro-1,8-naphthyridin-2-yl)butyl)amino)-2-((5-phenylpyrimidin-4-yl)amino) butanoic acid]
< 50 nM	Cn1ncc2c(N[C@@H](CCN(CCCCc3ccc4c(n3)NCCC4)CCOc3ccc(F)cc3)C(=O)O)ncnc21 [Compound 123, (S)-4-((2-(4-fluorophenoxy)ethyl) (4-(5,6,7,8-tetrahydro-1,8-naphthyridin-2-yl)butyl)amino)-2-((1-methyl-1H-pyrazolo[3,4-d]pyrimidin-4-yl)amino) butanoic acid]
